Source: article PMC11763264, “Antibacterial and Antifungal Activities of Linear and Cyclic Peptides Containing Arginine, Tryptophan, and Diphenylalanine” (Antibiotics, 2025)
In brackets after ≈: the same amount, converted by molar mass. Non-standard residues stand in square brackets, D forms with d. Residues, ends and D or L forms follow the SMILES beside them. Dip = N[C@H](C(=O)O)C(c1ccccc1)c1ccccc1

How the values were obtained:
[1] = test system: MRSA (ATCC BAA-1556); experiment: microbe, parasite or virus in culture; type: cell-based, Methicillin-Resistant Staphylococcus aureus; details: ATCC BAA-1556, 24 h
Description: (§1) The antibacterial activity of all ten synthesized linear and cyclic peptides was evaluated against MRSA (ATCC BAA-1556), S. aureus (ATCC 29213), E. faecium (ATCC 700221), S. pneumoniae (ATCC 51938), E. faecalis (ATCC 29212), B. subtilis (ATCC-6633), K. pneumoniae (ATCC BAA-1705), P. aeruginosa (ATCC 27883), and E. coli (ATCC 25922). Meropenem and daptomycin were used as positive controls for this study. Certain peptides are marked as “NT” (not tested) against specific bacterial strains based on initial screening data. […] The MIC was determined by micro-broth dilution protocol, where the minimal concentrations were determined to be in wells with no visible bacterial growth.
(§2) All bacterial experiments were carried out in a laminar flow hood (Labconco, Kansas City, MO, USA). The bacterial strains were cultured following the guidelines set by the Clinical Laboratory Standards Institute (CLSI). Antibacterial assays were performed using a standard microtiter dilution method as described in previous studies. The minimum inhibitory concentration (MIC) refers to the lowest peptide concentration that inhibits bacterial growth in wells with no visible bacterial growth. MIC was determined by micro-broth dilution. Bacteria were cultured overnight in 6 mL of Luria Broth (LB). A stock solution of the peptide was prepared in water and DMSO, and a test compound solution with a concentration of 256 µg/mL was made in LB. Meropenem, with a solubility of 8 mg/mL, was prepared as a stock solution at 4 mg/500 µL. An aliquot of the overnight bacteria culture was diluted in normal saline (NS, 1 mL) until achieving a 0.5 McFarland turbidity (1.5 × 10^8 bacterial cell CFU/mL). A 0.5 McFarland compared solution (60 µL) was added to Mueller Hinton Broth (MH) 8940 µL to generate a 1/150 dilution. A 200 µL test compound solution was added to the first well of a 96-well plate, and the remaining wells (2–12) were filled with 100 µL of MH media using a multi-channel pipette from a sterile reservoir. A concentration of […] of the tested peptides was prepared from a stock solution of the samples for testing in Muller−Hinton broth MH media. Peptides stock solution was dissolved in 5% DMSO in water, and the final concentration of DMSO in the first well of assay plate was 2.5% DMSO/H2O and diluted across the assay plate.
(§3) A 100 µL sample from well 1 was pipetted into well 2, and the solution was mixed thoroughly by pipetting up and down. Next, 100 µL was transferred from well 2 to well 3, followed by thorough mixing. This 2-fold serial dilution process continued through well 11, with no additions made to well 12. The final 100 µL from well 11 was discarded. After completing the serial dilution, each well (1–12) contained 100 µL of solution. The bacterial culture in MH media was vortexed and transferred to a sterile reservoir, from which 100 µL was added to each well using a 12-channel pipette. (Note: The dilutions were further diluted upon adding the bacterial solution; for example, the concentration in well 1 started at […] after the addition of the bacterial culture.) The plates were incubated overnight at 37 °C for 24 h. All experiments were performed in triplicate and repeated twice, with controls consisting of bacteria in MH media and positive controls of daptomycin or meropenem.

[2] = test system: S. aureus (ATCC 29213); experiment: microbe, parasite or virus in culture; type: cell-based, Staphylococcus aureus; details: ATCC 29213, 24 h
Description: as §1, §2, §3

[3] = test system: E. faecalis (ATCC 29212); experiment: microbe, parasite or virus in culture; type: cell-based, Enterococcus faecalis; details: ATCC 29212, 24 h
Description: as §1, §2, §3

[4] = test system: K. pneumoniae (ATCC BAA-1705); experiment: microbe, parasite or virus in culture; type: cell-based, Klebsiella pneumoniae; details: ATCC BAA-1705, 24 h
Description: as §1, §2, §3

[5] = test system: C. albicans (ATCC 60193); experiment: microbe, parasite or virus in culture; type: cell-based, Candida albicans; details: ATCC 60193, 24 h
Description: The antifungal activity of all ten synthesized linear and cyclic peptides was evaluated against C. albicans (ATCC 60193), C. parapsilosis (ATCC 22019), and A. fumigatus (AF-293). Fluconazole and amphotericin B were used as positive controls for this study. The MIC was determined at concentrations in wells with no visible fungal growth.
In this study, C. albicans and C. parapsilosis were cultured on Yeast Peptone Dextrose (YPD) agar containing 1% w/v yeast extract, 2% w/v peptone, 2% w/v D-glucose, and 1.5% agar. A single colony from the agar was selected and cultured in Tryptone soy broth supplemented with 0.1% D-glucose, then incubated for 24 h at 37 °C. The cells were washed twice with PBS by centrifugation at 2000 RPM for 5 min. The pellet was resuspended in 5 mL of PBS, diluted in RPMI 1640 with L-glutamine, supplemented with 2% D-glucose, and the pH adjusted using HEPES buffer. The suspension was then incubated for 50 min at 35 °C to achieve a final cell concentration of 10^6 cells/mL.
Peptide concentrations of 50, 25, 12.5, 6.25, and 3.1 μg/mL were tested in triplicate and repeated twice. Each well of a 96-well plate was inoculated with the prepared inoculum suspension, which was diluted with RPMI media to a final volume of 200 μL per well. The control well received the same inoculum without any compound. The plates were incubated for 24 h at 37 °C. Fungal and microbial growth were visually observed in the control wells, and the minimum inhibitory concentration (MIC) was determined as the lowest concentration at which no growth was detected in the wells. Amphotericin B was used as a standard antifungal drug.

[6] = cited from earlier work
Excerpt: We hypothesized that these peptides can be used as a broad-spectrum antibiotic and antifungal agents by interacting with bacterial and fungal membranes. The head-to-tail cyclization and incorporation of unnatural amino acids could provide improved stability against degradation in the biological environment. […] For example, we have previously shown the plasma stability of [DipR]5. Approximately 15% degradation of [DipR]5 was observed within the first hour, but the rate of de ...

Which results are given for `N=C(N)NCCC[C@@H]1NC(=O)[C@H](C(c2ccccc2)c2ccccc2)NC(=O)[C@H](CCCNC(=N)N)NC(=O)[C@H](C(c2ccccc2)c2ccccc2)NC(=O)[C@H](CCCNC(=N)N)NC(=O)[C@H](C(c2ccccc2)c2ccccc2)NC(=O)[C@H](CCCNC(=N)N)NC(=O)[C@H](C(c2ccccc2)c2ccccc2)NC(=O)[C@H](CCCNC(=N)N)NC(=O)[C@H](C(c2ccccc2)c2ccccc2)NC1=O` [[DipR]5] (cyclo([Dip]R[Dip]R[Dip]R[Dip]R[Dip]R))?
MIC [1]: 3.1 µM (≈ 5.88 µg/mL); MIC [2]: 3.1 µM (≈ 5.88 µg/mL); MIC [3]: 0.78 µM (≈ 1.48 µg/mL); MIC [4]: 25 µM (≈ 47.4 µg/mL); MIC [5]: 13.1 µM (≈ 24.9 µg/mL); degradation in plasma [6]: Approximately 15%
